Source: patent US20250249025A1, “DRUG DELIVERY CARRIER UTILIZING PROPERTY OF D-ALLOSE BEING UPTAKEN BY CANCER CELL, DRUG DELIVERY METHOD, AND COMPOSITION FOR TREATING RENAL CELL CARCINOMA” (NATIONAL UNIVERSITY CORPORATION KAGAWA UNIVERSITY, priority 2019, published 2025)

Legend:
liver tissue = assay: Liver tissue histology in renal cell carcinoma xenograft mouse models; type: in vivo; conditions: xenograft mice, intraperitoneal once a day, day 35; diagnosis by a medical specialist in pathology; FIG. 8
Method: The day when the tumor size of the renal cell carcinoma xenograft mouse models became 200 mm^3 or more was called day 0 and the intraperitoneal injection of a D-allose-containing solution was started from day 1. The solution injected is 0.4 mL of physiological saline or a solution obtained by dissolving 100 mg/kg or 400 mg/kg of D-allose in 0.4 mL physiological saline. The resulting solution was intraperitoneally injected into three groups of mice (Control, 100 mg/kg of D-allose, and 400 mg/kg of D-allose) once a day for 5 weeks in total. The body weight of the mice and the long and short diameters of the tumor were measured over time twice a week. It is to be noted that the tumor volume was obtained as a product of long diameter×short diameter×short diameter of the tumor×0.5. […]
The tissue of the excised tumor, kidney, and liver was fixed with a 4% paraformaldehyde phosphate buffer, embedded with paraffin, and sliced into a 4-μm thick section. The resulting sliced section was stained with hematoxylin and eosin and evaluated by a medical specialist in pathology. The influence of D-allose on the tumor tissue was evaluated by a necrosis area (%) and an image of the number of nuclear fissions (Cells/HPF). It is to be noted that the necrosis area was measured using an image recording software Nikon NIS—Elements D and figures after the decimal point were omitted. […]

[1] = system: renal cell carcinoma cell line (Caki-II); assay: Cell survival assay (MTT assay), Caki-II; type: cell-based, human; conditions: 10 mM, 25 mM and 50 mM in MEM, 24 hours, compared with Control (p<0.05), FIG. 3
Method: The antitumor effect of rare sugars was analyzed using the three human renal cell carcinoma cell lines (ACHN, Caki-I, and Caki-II) used in Example 1. As the rare sugars, used were the following ten rare sugars: L-allulose, D-allulose, D-allose, L-fructose, D-mannose, L-sorbose, D-tagatose, D-galactose, D-sorbose, and L-tagatose, while as monosaccharides not belonging to rare sugars, D-glucose and D-fructose were used.
As a medium, a minimum essential medium (MEM) containing 1000 mg/l of D-glucose was used. By adjusting it to contain 10 mM, 25 mM, and 50 mM of each of the monosaccharides or rare sugars and using thus-obtained MEMs [shown by (10), (25), and (50) in the drawing], an antitumor effect of the rare sugars was evaluated.
A 5.0×10^4 cells/ml of each of cell suspensions was formed using MEM. The resulting suspension (0.1 ml/well) was distributed in a 96-well plate, followed by culturing for 24 hours. […]
The MTT assay is one of test methods for measuring survival and makes use of a color reaction of an insoluble formazan dye (blue) caused by the reduction of MTT which is a tetrazolium salt. […] The cell viability is determined by measuring this color reaction with a microplate reader.

[2] = system: human prostate carcinoma cell line Du145; assay: Rare sugar uptake experiment, sugar content in disrupted cell suspension of Du145; type: cell-based
Method: An uptake amount of a rare sugar, which had been added to a medium, into carcinoma cells was analyzed using the cell lines of three types of cancers. As the rare sugar, four kinds, that is, D-allose, D-allulose (D-psicose), L-allulose (L-psicose), and allitol were used, while D-glucose and fructose were used as a monosaccharide which was not a rare sugar.
Cells of each of the cell lines were cultured in RPMI-1640 media and during culturing, six sugars were each added to the resulting media and cultured. After culturing, an amount of each sugar taken up into the cells was analyzed. The medium to which no sugar was added during culturing was used as a control.
Used were human bladder carcinoma cell lines (RT112, 253), and J82), human prostatic carcinoma cell lines (LNCa, Du145, and PC-3), and human renal cell carcinoma cell lines (ACHN, Caki-I, and Caki-II).
After cells were cultured in RPMI-1640 (2000 mg D-glucose/L) media, the above monosaccharides and rare sugars were added to the resulting media, respectively. Described specifically, they were following seven combinations: RPMI-1640 alone (control), RPMI-1640+D-glucose, RPMI-1640+L-allulose, RPMI-1640+D-allulose, RPMI-1640+D-fructose, RPMI-1640+D-allose, and RPMI-1640+D-allitol. The final concentration of the sugar in the medium was adjusted to 10 mM and no sugar was added in the control.
Five-ml portions of a 3.0×10^4 cells/ml cell suspension prepared using RPMI-1640 were seeded in dishes having a diameter of 6 cm (1.5×10^5 cells/dish) and cultured for 24 hours in the RPMI-1640 medium containing 2000 mg/l of D-glucose as a nutrient source. Twenty-four hours later, the media were changed to the culture solutions containing the monosaccharides and rare sugars described above in 2), respectively, followed by culturing for 48 hours.
After culturing for 48 hours, the attached human carcinoma cells were mechanically separated and collected in a Spitz tube together with the culture solution and floating cells. After the supernatant formed by centrifugation (4° C., 1200 rpm, and 5 minutes) was removed to obtain cell pellets alone, 5 ml of a phosphate buffer physiological saline (PBS) was added for the purpose of washing to obtain a cell suspension of the cell pellets. A gain, the resulting cell suspension was centrifuged at 4° C. and 1200 rpm for 5 minutes and the supernatant was removed. To the cell pellets after washing was added 1 ml of pure water to suspend them therein. Ultrasonic disruption (intensity: 40%, 30 seconds) was then performed and the monosaccharide in the disrupted cell suspension was labeled with ABEE, followed by analysis by HPLC. From the area thus obtained, the sugar content in the cells was determined using a calibration curve. With respect to the ketose, two peaks were found after labeling with ABEE so that the sugar content in the cells was determined from the calibration curves of both peaks.

O=C[C@H](O)[C@H](O)[C@H](O)[C@H](O)CO [D-allose]
Influence on the liver tissue (liver tissue): No influence
Viability [1]: significantly reduced the viability
D-glucose content in cell ([2]; Du145, named sugar added to RPMI-1640 at 10 mM, 48 hours, HPLC after ABEE labeling): 16.2 µg
Content in cell of the added sugar ([2]; human, 48 h, 10 mM): 0.0 µg
